Test results as given in patent US3969521A, “Pharmaceutical compositions containing tetrahydroalstonine and method for treating circulation disorders” (Science Union et Cie, Societe Francaise de Recherche Medical, priority 1974, dated 1976).

Assays:
femoral blood flow = test: Femoral blood flow, anaesthetized dogs; format: in vivo, dog; settings: 100 mg/kg perorally
Description: Femoral blood flow was measured with an electromagnetic flowmeter (Statham).

[1] = test system: recovery of learned memories; test: Recovery of learned memories after electroshock (aquatic maze crossing); format: in vivo, rat
Description: Effects of tetrahydroalstonine on the recovery of learned memories on rats.
Tetrahydroalstonine has been tested on lots of rats in order to determine how fast it allows the recovery of learned memories after supramaximal electroshock in comparision with Vincamine and Papaverine. These last compounds are known to be active on the circulation namely as vasodilating agents.
In this test, as described by C. Giurgea (J. Pharmacol. (Paris) 3 17 (1972)), the rats are submitted to a submaximal electroshock which causes a spatio-temporal desorientation. This syndrom is evidenced by the difficulties the tested animals encountered for crossing over a maze filled with cold water without any error, after they have been submitted to the electroshock. The rats have been previously trained to swimm through this maze and the training has been renewed four times for 2 days.
The electric shock was delivered by means of a Neurovar apparatus (ALVAR Electronics) the third day. 20 Minutes after the electro shock, each lot of rats is tested and the time for crossing over the maze is determined. Immediately after, the rats received the compound to be tested by intra oesophageal tubing. Each lot is then experienced four times, 1, 2, 3, and 4 hours after the electroshock.
The score of performances of each individual is recorded and every error during the crossing over noticed.
The compounds to be tested (papaverine, vincamine and tetrahydroalstonine) are given to the animals, suspended in an aqueous solution of carboxymethylcellulose and sorbitan monooleate.
Papaverine and vincamine were administered at dosis ranging from 1 to 20 mg/kg. Tetrahydroalstonine was administered at a dosis of 0.6 mg/kg, 6 mg/kg and 60 mg/kg.
A lot of rats received only the aqueous solvent under the same volume (0.5 ml/100 g animal) as controls.
Therein are reported for each lot of rats the number of errors and the average time for crossing over the maze during the 5 tests performed after the animals have been subjected to the electroshock.
The treatment has been given 20 mn after the electroshock, immediately
after the first crossing over

[2] = French Pat. 1.397.537; cited from earlier work
blood-sugar levels = settings: rat, thesis (Kocialski); cited from earlier work
[3] = 0,6 mg/kg P.O., 20 minutes after electroshock (before treatment)
[4] = 6 mg/kg P.O., 20 minutes after electroshock (before treatment)
[5] = 60 mg/kg P.O., 20 minutes after electroshock (before treatment)

## COC(=O)C1=CO[C@@H](C)[C@@H]2CN3CCc4c([nH]c5ccccc45)[C@@H]3C[C@H]12 [Tetrahydroalstonine]
Femoral blood flow
  vasodilatory effect on the femoral blood flow: clear
Femoral blood flow; 45 minutes (Table I)
  Femoral vein flow: 38,0
Femoral blood flow; 67 minutes (Table I)
  Femoral vein flow: 38,7
Femoral blood flow; 90 minutes (Table I)
  Femoral vein flow: 37,1
Femoral blood flow; 112 minutes (Table I)
  Femoral vein flow: 34,5
Femoral blood flow; 135 minutes (Table I)
  Femoral vein flow: 27,7
[1]; 0,6 mg/kg P.O., 20 minutes (before treatment)
  a = variation of average number of errors as regard as the controls: -
[1]; [3]
  E = average number of errors: 12,3
  T = average time for crossing over: 124,2 seconds
[1]; 0,6 mg/kg P.O., 60 minutes
  E = average number of errors: 8,4
  T = average time for crossing over: 85,2 seconds
  a = variation of average number of errors as regard as the controls: -
[1]; 0,6 mg/kg P.O., 120 minutes
  E = average number of errors: 6,2
  T = average time for crossing over: 66,4 seconds
  a = variation of average number of errors as regard as the controls: -
[1]; 0,6 mg/kg P.O., 180 minutes
  E = average number of errors: 3,1
  T = average time for crossing over: 37,9 seconds
  a = variation of average number of errors as regard as the controls: -
  b = statistical value (student's test), number of errors: 0,01
[1]; 0,6 mg/kg P.O., 240 minutes
  E = average number of errors: 2,0
  T = average time for crossing over: 29,4 seconds
  a = variation of average number of errors as regard as the controls: -
  b = statistical value (student's test), number of errors: 0,0005
[1]; 0.6 mg/kg
  potency compared with papaverine or vincamine: competes with that of 20 mg/kg of papaverine or vincamine
  time after which the statistically significant decrease of the number of mistakes appeared: 180 mn
[1]; 6 mg/kg
  start of the improving effect: 60 mn
  time after which the statistically significant decrease of the number of mistakes appeared: 120 mn
[1]; 6 mg/kg P.O., 20 minutes (before treatment)
  a = variation of average number of errors as regard as the controls: -
[1]; [4]
  E = average number of errors: 12,3
  T = average time for crossing over: 133,5 seconds
[1]; 6 mg/kg P.O., 60 minutes
  E = average number of errors: 6,9
  T = average time for crossing over: 75,1 seconds
  a = variation of average number of errors as regard as the controls: -
[1]; 6 mg/kg P.O., 120 minutes
  E = average number of errors: 4,4
  T = average time for crossing over: 52,5 seconds
  a = variation of average number of errors as regard as the controls: -
  b = statistical value (student's test), number of errors: 0,05
[1]; 6 mg/kg P.O., 180 minutes
  E = average number of errors: 3,6
  T = average time for crossing over: 54,6 seconds
  a = variation of average number of errors as regard as the controls: -
  b = statistical value (student's test), number of errors: 0,05
[1]; 6 mg/kg P.O., 240 minutes
  E = average number of errors: 2,5
  T = average time for crossing over: 23,8 seconds
  a = variation of average number of errors as regard as the controls: -
  b = statistical value (student's test), number of errors: 0,005
[1]; 60 mg/kg
  time after which the statistically significant decrease of the number of mistakes appeared: 60 mn
[1]; 60 mg/kg P.O., 20 minutes (before treatment)
  a = variation of average number of errors as regard as the controls: -
[1]; [5]
  E = average number of errors: 10,6
  T = average time for crossing over: 135,0 seconds
[1]; 60 mg/kg P.O., 60 minutes
  E = average number of errors: 5,8
  T = average time for crossing over: 62,2 seconds
  a = variation of average number of errors as regard as the controls: -
  b = statistical value (student's test), number of errors: 0,025
[1]; 60 mg/kg P.O., 120 minutes
  E = average number of errors: 2,7
  T = average time for crossing over: 28,8 seconds
  a = variation of average number of errors as regard as the controls: -
  b = statistical value (student's test), number of errors: 0,005
[1]; 60 mg/kg P.O., 180 minutes
  E = average number of errors: 1,6
  T = average time for crossing over: 18,8 seconds
  a = variation of average number of errors as regard as the controls: -
  b = statistical value (student's test), number of errors: 0,0005
[1]; 60 mg/kg P.O., 240 minutes
  E = average number of errors: 1,8
  T = average time for crossing over: 20,1 seconds
  a = variation of average number of errors as regard as the controls: -
  b = statistical value (student's test), number of errors: 0,0005
[1]; 0.6, 6 and 60 mg/kg
  dose dependence of the effect on number of mistakes: closely related to the used dosis
[1]; highest tested dosage (60 mg/kg)
  time after the convulsive shock at which recovery of the memory is complete: 120 mn
[1]; rat, in vivo
  activity relative to papaverine and vincamine: more active
  effect on the recovery of learned memory: improving effect
[2]
  adrenolytic activity: adrenolytic agent
blood-sugar levels
  effect on blood-sugar levels: negative
